Tested on: 966289-007-R4-J1-PDC complex spheroid viability
Assay: Anticancer human tumor 966289-007-R4-J1-PDC patient-derived pancreatic adenocarcinoma cell line growth inhibition [RAS]
Conditions: for IC50: curve of first compound; for viability, T/C: stronger effect = lower value
Description: RAS pathway inhibitors in Combinations in Complex Spheroids
A high-throughput screen of multi-cell type tumor spheroids was designed to identify active combinations of RAS pathway inhibitors and targeted small molecules. Complex spheroids include a stromal component modeled by human endothelial cells (HUVEC) and fibroblasts modeled by human mesenchymal stem cells (MSCs). The concentration ranges selected for each drug and investigational agent were based upon clinically achievable concentrations if the clinical Cmax of the agent was known.
Compounds. The drugs and investigational agents: abemaciclib (NSC768073), cobimetinib (NSC768068), divarasib (GDC6063, NSC841802), docetaxel (NSC628503), GDC-1971 (RLY-1971, NSC841576), gemcitabine (NSC613327), inavolisib (NSC800729), ipatasertib (NSC767898), KB-0742 (NSC834161), MRTX-1133 (NSC836407), osimertinib (NSC779217), RMC-4630 (NSC839698), RMC-6236 (NSC851965), RMC-6291 (NSC852671), Ro-3306 (NSC812927), sapanisertib (NSC764658), SN-38 (NSC673596), staurosporine (NSC755774), SY5609 (NSC837396), and tovorafenib (DAY101, NSC766906), were obtained from the National Cancer Institute (NCI) Developmental Therapeutics Program Chemical Repository. The FDA-approved anticancer drug set is available from the NCI Developmental Therapeutics Program. […] The stock solutions were prepared in dimethyl sulfoxide (DMSO, Sigma-Aldrich, St. Louis, MO, cat. D2650) at 800-fold the tested concentration and stored at -70 degrees C prior to their use. All drugs and investigational agents were tested over a range starting from a high concentration at or near the clinical Cmax and decreasing in half-log increments. If the clinical Cmax for an agent had not been determined, the highest concentration tested was 10 microM.
Cell Culture. All cells were maintained in an incubator at 37 degrees C and 5% CO2 with 95% humidity. The PDC lines were cultured according to standard operating procedures established by the NCI PDMR. All PDCs were thawed and cultured in Matrigel-coated flasks prepared with a working solution of 1X Ham's F-12 nutrient mix, without supplementation (Invitrogen, Waltham, MA, cat. 11765054), 100 U/mL penicillin-streptomycin (Invitrogen, cat. 15140122), and 2.5% Matrigel (Corning Inc., Corning, NY, cat. 354248) for the first three passages. The 362531-283-R-J2-PDC and 782815-120-R-J1-PDC lines were cultured in 6C/Colon 1B media, which includes advanced DMEM/F-12 (Thermo Fisher Scientific, cat. 12634028), 10 mM HEPES (Thermo Fisher Scientific, cat. 15630080), 1X GlutaMAX supplement (Thermo Fisher Scientific, cat. 35050061), 0.1 mg/mL primocin (InvivoGen, San Diego, CA, cat. ant-pm-2), 10% defined fetal bovine serum, heat inactivated (HyClone Laboratories Inc., Logan, UT, cat. SH30070.03HI), 50% L-WRN conditioned media (ATCC, cat. CRL-3276), 1.25 mM N-Acetyl-L-cysteine (Sigma-Aldrich, cat. A9165), 10 mM nicotinamide (Sigma-Aldrich, cat. N0636), 1X B-27 supplement (Thermo Fisher Scientific, cat. 17504044), 1X N-2 supplement (Thermo Fisher Scientific, cat. 17502048), 50 ng/mL human EGF (Thermo Fisher Scientific, cat. PHG0311), and 10 microM Y-27632 dihydrochloride (Tocris Bioscience, cat. 1254). The K12877-001-R-J1-PDC line was cultured in 6I media, which includes all 6C/Colon 1B media plus 10 ng/mL human FGF-10 (PeproTech, cat. 100-26), 1 ng/mL human FGF-2 (PeproTech, cat. 100-18B), 1 µM prostaglandin E2 (Tocris Bioscience, cat. 2296), […] hydrocortisone (Sigma-Aldrich, cat. H4001), and […] bovine insulin (Sigma-Aldrich, cat. I6634). The K86415-001-R-J1-PDC line was cultured in 6D media, which includes all 6C/Colon 1B media components minus the L-WRN conditioned media. The 485176-168-R4-J1-PDC was cultured in PANC media, which includes all 6C/Colon 1B media plus 100 ng/mL human FGF-10 (PeproTech, cat. 100-26), 500 nM SB-431542 (Selleckchem, cat. S1067), and 10 nM gastrin (Tocris Bioscience, cat. 3006). […]
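Also: spheroids exposed to agents for one week before readout.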
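For viability, T/C in this document: percent viability relative to DMSO vehicle control wells as 100%.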

SMILES: CC(C)NCC(C(=O)N1CCN(c2ncnc3c2C(C)CC3O)CC1)c1ccc(Cl)cc1 (configuration not stated) + CCn1c(-c2cc(N3CCN(C)CC3)cnc2C(C)OC)c2c3cc(ccc31)-c1csc(n1)CC(NC(=O)C1CC1C)C(=O)N1CCCC(N1)C(=O)OCC(C)(C)C2
- IC50 (second compound 0.000949 µM): 5.85 µM
- IC50 (second compound 0.003 µM): 4.53 µM
- IC50 (second compound 0.00949 µM): 5.06 µM
- IC50 (second compound 0.03 µM): 4.79 µM
- IC50 (second compound 0.0949 µM): 2.99 µM
- IC50 (second compound 0.3 µM): 4.07 µM
- viability, T/C (second compound 0.000949 µM, first compound 0.0316 µM): 115%
- viability, T/C (second compound 0.000949 µM, first compound 0.1 µM): 76.5%
- viability, T/C (second compound 0.000949 µM, first compound 0.316 µM): 119%
- viability, T/C (second compound 0.000949 µM, first compound 1 µM): 83.1%
- viability, T/C (second compound 0.000949 µM, first compound 3.16 µM): 68.4%
- viability, T/C (second compound 0.000949 µM, first compound 10 µM): 35.2%
- viability, T/C (second compound 0.003 µM, first compound 0.0316 µM): 106%
- viability, T/C (second compound 0.003 µM, first compound 0.1 µM): 92.5%
- viability, T/C (second compound 0.003 µM, first compound 0.316 µM): 91.8%
- viability, T/C (second compound 0.003 µM, first compound 1 µM): 95.3%
- viability, T/C (second compound 0.003 µM, first compound 3.16 µM): 58.1%
- viability, T/C (second compound 0.003 µM, first compound 10 µM): 32.2%
- viability, T/C (second compound 0.00949 µM, first compound 0.0316 µM): 85.5%
- viability, T/C (second compound 0.00949 µM, first compound 0.1 µM): 98.6%
- viability, T/C (second compound 0.00949 µM, first compound 0.316 µM): 103%
- viability, T/C (second compound 0.00949 µM, first compound 1 µM): 97.2%
- viability, T/C (second compound 0.00949 µM, first compound 3.16 µM): 61.3%
- viability, T/C (second compound 0.00949 µM, first compound 10 µM): 33.6%
- viability, T/C (second compound 0.03 µM, first compound 0.0316 µM): 75.1%
- viability, T/C (second compound 0.03 µM, first compound 0.1 µM): 97.4%
- viability, T/C (second compound 0.03 µM, first compound 0.316 µM): 99.2%
- viability, T/C (second compound 0.03 µM, first compound 1 µM): 97.6%
- viability, T/C (second compound 0.03 µM, first compound 3.16 µM): 61.6%
- viability, T/C (second compound 0.03 µM, first compound 10 µM): 29.4%
- viability, T/C (second compound 0.0949 µM, first compound 0.0316 µM): 77.1%
- viability, T/C (second compound 0.0949 µM, first compound 0.1 µM): 90.7%
- viability, T/C (second compound 0.0949 µM, first compound 0.316 µM): 113%
- viability, T/C (second compound 0.0949 µM, first compound 1 µM): 92.7%
- viability, T/C (second compound 0.0949 µM, first compound 3.16 µM): 47.9%
- viability, T/C (second compound 0.0949 µM, first compound 10 µM): 27.3%
- viability, T/C (second compound 0.3 µM, first compound 0.0316 µM): 83.7%
- viability, T/C (second compound 0.3 µM, first compound 0.1 µM): 102%
- viability, T/C (second compound 0.3 µM, first compound 0.316 µM): 112%
- viability, T/C (second compound 0.3 µM, first compound 1 µM): 98.3%
- viability, T/C (second compound 0.3 µM, first compound 3.16 µM): 57.4%
- viability, T/C (second compound 0.3 µM, first compound 10 µM): 23.8%
